Results from patent publication US9127016B2, “Small molecule inhibitors of Dusp6 and uses therefor” (University of Pittsburgh—Of the Commonwealth System of …, priority 2009, dated 2015).

Legend:
[1] = system: FGF signaling (d2EGFP reporter); assay: BCI analog SAR: d2EGFP intensity in transgenic zebrafish embryos by densitometry; type: in vivo; conditions: 20 μM, 24 hpf embryos, 6 h; for Activity (BCI = 100): d2EGFP intensity in the dorsal region
Procedure: Transgenic zebrafish embryos (24 hpf) were treated with 20 μM solution of BCI analogs in 0.5% aq DMSO and fluorescence photomicrographs were taken after 6 h. The effectiveness of BCI analogs was evaluated by densitometry (ImageJ) of d2EGFP intensity in the dorsal region.

human Dusp1 = biological target: T1, human Dusp1 (Homo sapiens, UniProt P28562); assay: Chemical complementation assay in HeLa cells, pERK restoration, Dusp1-Myc; type: cell-based; conditions: TPA stimulated
T1 construct: expressed in transfected cells; host or cells: HeLa cells, pcDNA3.1, FuGene 6
T1 sequence (P28562 1-367): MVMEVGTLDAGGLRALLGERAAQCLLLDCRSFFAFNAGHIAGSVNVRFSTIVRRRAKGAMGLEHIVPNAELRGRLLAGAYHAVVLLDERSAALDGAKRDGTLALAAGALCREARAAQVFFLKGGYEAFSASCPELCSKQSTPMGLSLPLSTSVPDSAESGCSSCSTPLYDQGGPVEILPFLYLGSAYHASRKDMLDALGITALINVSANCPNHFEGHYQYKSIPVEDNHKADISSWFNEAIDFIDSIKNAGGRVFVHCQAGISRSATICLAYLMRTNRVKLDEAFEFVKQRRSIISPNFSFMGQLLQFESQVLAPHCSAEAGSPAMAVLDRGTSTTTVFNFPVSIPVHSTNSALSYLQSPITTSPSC
Procedure: (§1) These experiments were carried out essentially as described26. HeLa cells were obtained from ATCC (Manassas, Va.) and maintained in a humidified atmosphere of 5% CO2 at 37° C., Dulbecco's […] (DMEM) supplemented with 10% fetal bovine serum (FBS, HyClone, Logan, Utah), and 1% penicillin-streptomycin (Life Technologies, Inc., Rockville, Md.). c-Myc-Dusp6 and c-Myc-Dusp1 (also known as CL100) (kindly provided by Dr. Stephen Keyse, University of Dundee) were subcloned into pcDNA3.1 for ectopic expression in mammalian cells50. […] Plates were analyzed by three-channel multiparametric analysis for p-ERK and c-Myc-DUSP intensities in an area defined by nuclear staining using the Compartmental Analysis Bioapplication on an ArrayScan II high-content reader (Cellomics, Pittsburgh, Pa.). Restoration of ERK phosphorylation by BCI in Dusp6 overexpressing cells was quantified by Kolmogorov-Smirnov (KS) statistics as described previously using DUSP-transfected and vehicle treated control wells26. One thousand individual cells were gated for Dusp-Myc expression based on c-Myc immunostaining and analyzed for ERK phosphorylation. […] To quantify restoration of Erk phosphorylation in the Dusp expressing cells after compound treatment, KS values for each condition were normalized to the average KS value from four wells transfected with Dusp1 or Dusp6 and treated with vehicle. […]

Dusp6 = biological target: T2, Dusp6 (Homo sapiens, UniProt Q16828); assay: Chemical complementation assay in HeLa cells, pERK restoration, Dusp6-Myc; type: cell-based; set-up: expressed in transfected cells; host or cells: HeLa cells, pcDNA3.1, FuGene 6; conditions: TPA stimulated
T2 sequence (Q16828 1-381): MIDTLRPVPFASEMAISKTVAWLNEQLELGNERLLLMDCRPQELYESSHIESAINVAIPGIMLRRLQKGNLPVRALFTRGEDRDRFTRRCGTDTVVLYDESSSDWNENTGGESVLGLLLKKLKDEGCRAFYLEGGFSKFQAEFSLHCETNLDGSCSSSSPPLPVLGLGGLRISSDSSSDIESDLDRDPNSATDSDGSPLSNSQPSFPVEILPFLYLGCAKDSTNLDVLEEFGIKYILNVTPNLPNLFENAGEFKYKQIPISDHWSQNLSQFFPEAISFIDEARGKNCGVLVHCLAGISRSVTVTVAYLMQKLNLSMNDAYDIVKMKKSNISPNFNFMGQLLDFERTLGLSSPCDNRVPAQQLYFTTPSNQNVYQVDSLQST
Procedure: as §1

| Structure (SMILES) | in vivo activity relative to BCI, in words [1] | Activity (BCI = 100) [1] | block of Dusp1 activity in chemical complementation assay (human Dusp1) | block of Dusp6 activity in chemical complementation assay (Dusp6) | Activity (BCI = 100) ([1]; listed as 3 (BCI)) | IC50 (human Dusp1; 15 min compound, read-out: IC50, Dusp1 inhibition (pERK restoration)) | IC50 (Dusp6; 15 min compound, read-out: IC50, Dusp6 inhibition (pERK restoration)) |
| --- | --- | --- | --- | --- | --- | --- | --- |
| O=C1CC(NC2CCCCC2)c2ccccc21 (stereo not shown) [Compound 17, 3-(Cyclohexylamino)-2,3-dihydro-1H-inden-1-one] | inactive | 0 | did not block | did not block |  |  |  |
| O=C1/C(=C/c2ccccc2)C(NC2CCCCC2)c2ccccc21 (stereo not shown) [Compound 3, (E)-2-benzylidene-3-(cyclohexylamino)-2,3-dihydro-1H-inden-1-one] |  |  |  |  | 100 | 11.2 µM | 16 µM |
